US20240245806A1, “TREATMENT OF NEURODEGENERATIVE DISEASE USING CSA- AND INDY-TYPE COMPOUNDS” (BROWN UNIVERSITY, priority 2021, published 2024)
Entries after “also recorded” stand apart in the source; their conditions may differ.

Columns and labels:
zebrafish larvae [1] = assay: Behavioral screen of 190 FDA-approved drugs in 5-day-old zebrafish larvae (activity, optomotor and acoustic responses); assay type: in vivo, Danio rerio; settings: 10 μM, 5 dpf larvae, vs DMSO
Text: Zebrafish. The research project has been conducted in accordance with local and federal guidelines for ethical and humane use of animals and has been reviewed and approved by the Brown University Institutional Animal Care and Use Committee. Zebrafish (Danio rerio) embryos were collected and grown to larval stages as previously described. Pelkowski et al., Behav Brain Res 223, 135-144 (2011). Adult wild-type zebrafish are maintained at Brown University as a genetically-diverse outbred strain in a mixed male and female population. […] Embryos and larvae were kept on a 12 hour light/12 hour dark cycle and were randomly assigned to different experimental groups prior to experimental manipulation. The sex of embryos and larvae cannot be determined at such early stages because zebrafish use elusive polygenic factors for sex determination, and both males and females have juvenile ovaries between 2.5 and 4 weeks of development. Zebrafish larvae were imaged at 5 dpf when the larvae display a range of locomotor behaviors and consume nutrients available in the yolk sac. Clift et al., Zebrafish 11, 455-461 (2014). Larvae are approximately 4 mm long at the 5 dpf stage. Pharmacological treatments. Zebrafish larvae were treated with 190 FDA-approved compounds using a Tocris small-molecule library (Tocris Bioscience, Cat. No. 7200). […] Larvae were first treated in a Petri dish for 2 hours, transferred with the treatment solution to white 96-well ProxiPlates (PerkinElmer, 6006290) for 1 hour, and then imaged in the treatment solution for 3 hours. Imaging system. Zebrafish larvae were imaged in an imaging system that holds four 96-well plates for automated analysis of behavior in a 384-well format (FIG. 1). Briefly, the imaging system is housed in a 28.5° C. temperature-controlled cabinet where larvae in white 96-well ProxiPlates are placed onto a glass stage. Above the stage, a high-resolution camera (18-megapixel Canon EOS Rebel T6 with an EF-S 55-250 mm f/4.0-5.6 IS zoom lens) captures an image of the larvae in the four 96-well plates every 6 seconds. The camera is connected to a continuous power supply (Canon ACK-E10 AC Adapter) and controlled by a laptop computer using Canon's Remote Capture software (EOS Utility, version 3), which is included with the camera. Two small speakers (OfficeTec USB Computer Speakers Compact 2.0 System) were attached speaker-side down to the glass stage. Speakers were connected by USB to the laptop computer and set to maximum volume. […] Behavioral assay. Visual and acoustic stimuli are controlled by an automated 3-hour PowerPoint presentation that is shown to the larvae. […] Larvae were not exposed to visual stimuli and acoustic stimuli at the same time. The visual stimuli consisted of a series of moving lines that were red, green or blue. Prior studies have shown that zebrafish larvae will swim in the same direction as moving lines, a behavior that is called an optomotor response or OMR (19, 28). Our previously-developed assays for visually-guided behaviors indicate 5 dpf larvae consistently respond to 1 mm thick lines set 7 mm apart that move 7 mm per 8 seconds downwards or upwards, alternating direction in 10-minute periods (19). Additionally, the presentation included red lines that moved at a faster speed of 7 mm per 0.5 seconds (16× faster). […]

zebrafish larvae [2] = assay: Acute exposure of 5 dpf zebrafish larvae to modulators of calcineurin signaling, automated analysis of behavior; assay type: in vivo, Danio rerio
Experimental: Zebrafish larvae were treated at 5 dpf with various modulators of calcineurin signaling, starting 3 hours before imaging. The larvae were then imaged for a total of 3 hours using a behavioral assay with various visual and acoustic stimuli (FIG. 6). The behavioral assay started with a 1-hour period without stimuli, followed by 80 minutes with visual stimuli, 10 minutes without visual or acoustic stimuli, and 30 minutes with acoustic stimuli. Values of activity (% move) and position (% up) were averaged in individual larvae during 10-minute periods, for a total of 18 periods. These values were subsequently averaged between larvae in the same treatment group. We examined a total of 10 treatment groups. For clarity, only 3 treatment groups were graphed (FIG. 6), but all 10 treatment groups were analyzed in detail as shown in subsequent figures. […] The assay provides quantitative information on activity, visually-guided behaviors and acoustic startle responses.
To determine if larval zebrafish behavior is affected by modulation of calcineurin signaling, we imaged 5 day-old larvae in the following 10 treatment groups: 10 μM cyclosporine A (CsA), 1 μM tacrolimus (FK506), 5 or 10 μM proINDY, a combination of CsA+5 or 10 μM proINDY, or a combination of FK506+5 or 10 μM proINDY, DMSO as a vehicle control, and 1 μM rapamycin as a control for target specificity. Rapamycin and FK506 are both macrolide immunosuppressants with similar structures, however, rapamycin affects Target of Rapamycin (TOR) signaling instead of calcineurin signaling. Vellanki et al., Front Mol Biosci 7, 588913 (2020). The concentrations of CsA, FK506 and rapamycin were selected based on prior studies in zebrafish embryos and larvae. Clift et al., Behav Brain Res 282, 117-124 (2015). The two concentrations of proINDY, a membrane-permeable form of INDY (inhibitor of DYRK), were selected based on studies in cell lines and Xenopus embryos. Ogawa et al., Nat Commun 1, 86 (2010).
The research project has been conducted in accordance with local and federal guidelines for ethical and humane use of animals and has been reviewed and approved by the Brown University Institutional Animal Care and Use Committee. Zebrafish (Danio rerio) embryos were collected and grown to larval stages as previously described. Thorn et al., Sci Rep 9, 13989 (2019). Adult wild-type zebrafish are maintained at Brown University as a genetically-diverse outbred strain in a mixed male and female population. Zebrafish embryos from 0-3 days post-fertilization (dpf) and zebrafish larvae from 3-5 dpf were maintained at 28.5° C. in 2 L culture trays with egg water, containing 60 mg/L sea salt (Instant Ocean) and 0.25 mg/L methylene blue in deionized water. Embryos and larvae were kept on a 12 hour light/12 hour dark cycle and were randomly assigned to different experimental groups prior to experimental manipulation. The sex of embryos and larvae cannot be determined at such early stages because zebrafish use elusive polygenic factors for sex determination, and both males and females have juvenile ovaries between 2.5 and 4 weeks of development. Zebrafish larvae were imaged at 5 dpf when the larvae display a range of locomotor behaviors and consume nutrients available in the yolk sac. Larvae are approximately 4 mm long at the 5 dpf stage.
Cyclosporine (cyclosporin A, Enzo Life Sciences), FK506 (tacrolimus, Enzo Life Sciences), rapamycin (Santa Cruz Biotechnology) and proINDY (Tocris Bioscience) were diluted in egg water from 1000× stocks dissolved in dimethyl sulfoxide (DMSO). DMSO (1 μl/ml DMSO) was added to the single treatments and the corresponding DMSO concentration was used as a vehicle control for all solutions. Larvae were exposed at 5 dpf to treatment solutions or DMSO for a total of 6 hours. Larvae were first treated in a Petri dish for 2 hours, transferred with the treatment solution to white 96-well ProxiPlates (PerkinElmer, 6006290) for 1 hour, and then imaged in the treatment solution for 3 hours. […]

[3] = test system: zebrafish embryos and larvae; assay: Developmental exposure (2-3, 3-4 or 4-5 dpf) of zebrafish to modulators of calcineurin signaling, behavior imaged at 5 dpf; assay type: in vivo
Experimental: Zebrafish. Adult wild type zebrafish (Danio rerio) are maintained at Brown University as a genetically-diverse outbred strain in a mixed male and female population. Zebrafish embryos were collected and grown to larval stages as described previously. Thorn et al., Sci Rep 9, 13989 (2019). Embryos from 0-3 days post-fertilization (dpf) and larvae from 3-5 dpf were kept on a 12 hour light/12 hour dark cycle at 28.5° C. in 2 L culture trays with egg water, containing 60 mg/L sea salt (Instant Ocean) and 0.25 mg/L methylene blue in deionized water. Zebrafish embryos and larvae were randomly assigned to different experimental groups prior to experimental manipulation. The sex of embryos and larvae cannot be determined at such early stages because zebrafish use elusive polygenic factors for sex determination, and both males and females have juvenile ovaries between 2.5 and 4 weeks of development. Liew et al., Brief Funct Genomics 13(2), 172-187 (2014). Zebrafish larvae were imaged at 5 dpf when they are approximately 4 mm long, display a range of locomotor behaviors and consume nutrients available in the yolk sac. Clift et al., Zebrafish 11(5), 455-461 (2014).
Pharmacological treatments. Zebrafish embryos and larvae were treated with 10 μM CsA (cyclosporin A, Enzo Life Sciences), 1 μM FK506 (tacrolimus, Enzo Life Sciences), 1 μM rapamycin (Santa Cruz Biotechnology), 5 μM proINDY (Tocris Bioscience) or co-treatments of either 10 μM CsA+5 μM proINDY or 1 μM FK506+5 μM proINDY. […] Clift et al., Behav Brain Res, 282, 117-124 (2015). […] Robinson et al., J Appl Toxicol 37(12), 1438-1447 (2017). […] All administered compounds were diluted in egg water from 1000× stocks dissolved in dimethyl sulfoxide (DMSO). The corresponding DMSO concentration (1 μl DMSO/ml egg water) was used as a vehicle control. Embryos and larvae were treated during one of the following developmental stages: 2-3, 3-4, or 4-5 dpf. The embryos and larvae were treated in 10 cm Petri dishes for 24 hours, rinsed three times with egg water, and then transferred to new Petri dishes with egg water. Larvae that were treated from 4-5 dpf were rinsed and kept in egg water for 3 hours prior to imaging, typically from 10 am to 1 pm. All treatment groups were imaged at 5 dpf in egg water. For imaging, larvae were transferred to white 96-well ProxiPlates (PerkinElmer, 6006290) and were imaged for 3 hours, typically from 1-4 pm (FIG. 12).
Imaging of zebrafish larvae. Zebrafish larvae were imaged in a 384-well imaging system as described previously. Thorn et al., Sci Rep 9, 13989 (2019). Briefly, four 96-well ProxiPlates were placed on a glass stage inside a temperature-controlled cabinet, set at 28.5° C. The upper shelf of the cabinet holds a high-resolution camera (18-megapixel Canon EOS Rebel T6 with an EF-S 55-250 mm f/4.0-5.6 IS zoom lens), connected to a continuous power supply (Canon ACK-E10 AC Adapter) and controlled by a laptop computer. Images are acquired using Canon's Remote Capture software (EOS Utility, version 3), which is included with the camera. Every 6 seconds, the camera acquires a high-resolution image of larvae in the microplates (FIG. 12). Two small speakers (OfficeTec USB Computer Speakers Compact 2.0 System) are located speaker-side down on the glass stage. Speakers were connected by USB to the laptop computer and set to maximum volume (85 dBA).
Behavioral assay. Larval behaviors were imaged for 3 hours, as described previously. Thorn et al., Sci Rep 9, 13989 (2019). […] The PowerPoint started with a light background for 60 minutes without visual or acoustic stimuli, followed by 80 minutes with visual stimuli, 10 minutes without stimuli, and 30 minutes with acoustic stimuli (FIG. 12). Larvae were not exposed to visual stimuli and acoustic stimuli at the same time. The visual stimuli consisted of a series of lines that moved upwards or downwards in the microplates, in a horizontal plane. […]

[4] = 5 μM proINDY, 5 dpf acute, vs DMSO
[5] = 5 dpf acute exposure, vs DMSO, 10 μM CsA, 1 μM FK506, 1 μM rapamycin, proINDY

| SMILES | activity (zebrafish larvae [1]) | excitability (E) in response to acoustic stimuli at 1-second intervals (zebrafish larvae [1]) | optomotor response (OMR) (zebrafish larvae [1]) | early activity (first hour of imaging) (zebrafish larvae [2]; [4]) | late activity (period 15) (zebrafish larvae [2]; [4]) | late activity (period 15) (zebrafish larvae [2]; 10 μM proINDY, 5 dpf acute, vs DMSO) | optomotor response (OMR) (zebrafish larvae [2]; 5 dpf acute exposure, vs DMSO) | early activity (first hour of imaging) (zebrafish larvae [2]; [5]) | late activity (period 15) (zebrafish larvae [2]; [5]) | activity (zebrafish larvae [2]; 5 dpf acute exposure, vs DMSO, 10 μM CsA, 1 μM FK506, proINDY 5 or 10 μM) | optomotor response to fast red lines (zebrafish larvae [2]; 5 dpf acute, lines 16x faster) | excitability (acoustic stimuli at 1-second intervals) (zebrafish larvae [2]; 5 dpf acute, vs DMSO) | startle responses to acoustic stimuli at 20-second intervals (zebrafish larvae [2]; 5 dpf acute, vs DMSO) | optomotor response to red lines (zebrafish larvae [2]; 5 dpf acute, vs DMSO, proINDY 5 μM) | larval survival ([3]; developmental exposures to 10 μM proINDY) | OMR RGB ([3]; exposure 2-3 dpf) | late activity (period 15) ([3]; exposure 2-3 dpf) | startle responses (20-second interval) ([3]; exposure 3-4 dpf) | OMR RGB ([3]; exposure 4-5 dpf) | late activity (period 15) ([3]; exposure 4-5 dpf) |
| --- | --- | --- | --- | --- | --- | --- | --- | --- | --- | --- | --- | --- | --- | --- | --- | --- | --- | --- | --- | --- |
| CCCCC1=NC2(CCCC2)C(=O)N1Cc1ccc(-c2ccccc2-c2nnn[nH]2)cc1 [Irbesartan] | increased activity | did not increase excitability; also recorded: does not increase excitability | decreased optomotor responses |  |  |  |  |  |  |  |  |  |  |  |  |  |  |  |  |  |
| Brc1c(NC2=NCCN2)ccc2nccnc12 [UK 14,304] | decrease in activity |  | increase in optomotor responses |  |  |  |  |  |  |  |  |  |  |  |  |  |  |  |  |  |
| CCN1/C(=C/C(C)=O)Sc2ccc(OC(C)=O)cc21 [proINDY, ProINDY] |  |  |  | reduced early and late activity | reduced early and late activity | reduced late activity only | increased optomotor responses; also recorded: increase in the optomotor response | decrease in early activity | decreased activity | decreased activity; also recorded: decrease in activity | increase in the optomotor response | increased excitability | slightly elevated | increased optomotor response | affected larval survival | decrease in OMR RGB | decreased activity | decrease startle responses | decrease in OMR RGB | increased activity |
